PMC103669 (BMC Pharmacology, 2002)

How the values were obtained:
[1] = target: T1, opossum alpha-2C adrenergic receptor (Didelphis virginiana, UniProt P35405, S309A/S310A/S312A/T311V); assay: biochemical
[2] = target: T2, opossum alpha-2C adrenergic receptor (Didelphis virginiana, UniProt P35405); assay: [3H]rauwolscine saturation binding, CHO membranes, filtration
T2 sequence (P35405 1-469): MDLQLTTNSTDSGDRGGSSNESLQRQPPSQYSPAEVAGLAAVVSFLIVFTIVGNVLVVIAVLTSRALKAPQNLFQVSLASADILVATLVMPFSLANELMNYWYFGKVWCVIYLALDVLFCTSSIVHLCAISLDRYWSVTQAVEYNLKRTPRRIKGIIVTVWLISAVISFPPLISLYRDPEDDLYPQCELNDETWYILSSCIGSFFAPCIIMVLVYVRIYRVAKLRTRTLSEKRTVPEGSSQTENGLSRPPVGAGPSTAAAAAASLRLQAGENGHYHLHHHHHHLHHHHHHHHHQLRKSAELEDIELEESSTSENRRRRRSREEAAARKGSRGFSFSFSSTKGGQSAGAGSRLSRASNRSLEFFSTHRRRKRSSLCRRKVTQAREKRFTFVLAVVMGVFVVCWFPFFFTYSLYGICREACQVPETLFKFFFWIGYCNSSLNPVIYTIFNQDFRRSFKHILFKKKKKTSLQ

[3] = target: opossum alpha-2C adrenergic receptor (Didelphis virginiana, UniProt P35405, S312A/T311V); assay: biochemical
[4] = target: T1, opossum alpha-2C adrenergic receptor; assay: biochemical; remark: listed apart in the source

T1 sequence (P35405 whole entry S309A/S310A/T311V/S312A): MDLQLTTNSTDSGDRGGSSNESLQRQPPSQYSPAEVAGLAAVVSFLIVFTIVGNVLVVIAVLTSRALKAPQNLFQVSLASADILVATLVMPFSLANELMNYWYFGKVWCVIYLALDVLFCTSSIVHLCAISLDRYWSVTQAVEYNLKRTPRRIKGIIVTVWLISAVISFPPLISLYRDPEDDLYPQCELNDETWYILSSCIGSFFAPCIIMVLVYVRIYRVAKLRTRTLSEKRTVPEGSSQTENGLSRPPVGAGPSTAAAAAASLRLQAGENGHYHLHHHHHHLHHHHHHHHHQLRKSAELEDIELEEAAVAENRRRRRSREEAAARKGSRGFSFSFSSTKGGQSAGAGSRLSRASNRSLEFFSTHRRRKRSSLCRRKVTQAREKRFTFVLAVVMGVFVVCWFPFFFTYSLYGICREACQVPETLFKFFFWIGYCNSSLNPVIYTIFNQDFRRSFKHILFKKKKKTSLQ
Sequence of opossum alpha-2C adrenergic receptor (Didelphis virginiana, UniProt P35405, S312A/T311V) (P35405 whole entry T311V/S312A): as the sequence (P35405 whole entry S309A/S310A/T311V/S312A) above, with A309S, A310S counted along it

Row | Compound | Kd [1] [nM] | Kd [2] [nM] | Kd [3] [nM] | Ki [4] [nM]
1 | COC(=O)[C@H]1[C@H]2C[C@H]3c4[nH]c5ccccc5c4CCN3C[C@H]2CC[C@@H]1O [[^3H]rauwolscine] | 0.118 ± 0.012 | 0.113 ± 0.008 | 0.105 ± 0.005 | 
2 | NC[C@H](O)c1ccc(O)c(O)c1 [norepinephrine] |  |  |  | 71 ± 5
